In ChEMBL document CHEMBL2163217, “A straightforward approach for engineering efficacy and selectivity at GPCRs” (J Med Chem, 2012):
The source made the active and inactive calls. The rule behind the calls is not given here.

Assays:
Assay type in all cases: functional
[1] = target: D(3) dopamine receptor (Homo sapiens) (UniProt P35462); assay: Partial agonist activity at D3 receptor
[2] = target: D(3) dopamine receptor (Homo sapiens) (UniProt P35462); assay: Partial agonist activity at D3 receptor relative to control
[3] = target: D(2) dopamine receptor (Homo sapiens) (UniProt P14416); assay: Partial agonist activity at D2 receptor
Chain of D(2) dopamine receptor (Homo sapiens) (P14416 whole entry): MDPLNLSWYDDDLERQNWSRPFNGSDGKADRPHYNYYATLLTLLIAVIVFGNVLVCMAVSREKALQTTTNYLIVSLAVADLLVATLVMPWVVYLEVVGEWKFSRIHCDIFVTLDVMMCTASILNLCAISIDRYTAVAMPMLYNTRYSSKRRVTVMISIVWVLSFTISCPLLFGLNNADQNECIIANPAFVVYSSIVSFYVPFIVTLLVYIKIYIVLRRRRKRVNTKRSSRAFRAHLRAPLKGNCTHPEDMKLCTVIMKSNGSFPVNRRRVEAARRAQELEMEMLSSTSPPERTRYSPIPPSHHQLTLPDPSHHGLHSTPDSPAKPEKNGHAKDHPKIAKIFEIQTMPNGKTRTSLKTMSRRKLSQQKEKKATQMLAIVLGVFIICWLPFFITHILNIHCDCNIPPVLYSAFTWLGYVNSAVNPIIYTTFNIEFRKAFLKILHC

[4] = target: D(2) dopamine receptor (Homo sapiens) (UniProt P14416); assay: Partial agonist activity at D2 receptor relative to control

Chain of D(3) dopamine receptor (Homo sapiens) (P35462 whole entry): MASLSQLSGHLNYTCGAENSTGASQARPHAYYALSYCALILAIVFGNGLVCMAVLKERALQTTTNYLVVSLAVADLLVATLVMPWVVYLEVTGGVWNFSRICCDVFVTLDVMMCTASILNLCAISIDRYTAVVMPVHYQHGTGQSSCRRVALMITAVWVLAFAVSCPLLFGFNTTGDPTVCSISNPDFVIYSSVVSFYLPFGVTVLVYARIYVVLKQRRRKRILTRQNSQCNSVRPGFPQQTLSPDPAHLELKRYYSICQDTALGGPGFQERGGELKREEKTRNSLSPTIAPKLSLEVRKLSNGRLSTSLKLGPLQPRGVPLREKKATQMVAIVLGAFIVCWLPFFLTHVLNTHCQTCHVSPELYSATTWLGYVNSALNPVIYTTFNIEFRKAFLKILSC

Row | Structure (SMILES) | Activity [1] | Emax [2] | Activity [3] | Emax [4]
1 | O=C(NCCCCN1CCN(c2cccc(Cl)c2Cl)CC1)c1cc2ccccc2[nH]1 | Active | – | – | –
2 | COc1ccccc1N1CCN(CCCCNC(=O)c2cc3ccccc3[nH]2)CC1 | Active | 8% | Active | 8%
3 | COc1ccccc1N1CCNCC1 | – | – | – | 14%
4 | Clc1cccc(N2CCNCC2)c1Cl | – | 57.3% | – | 40.4%
